Source: patent publication US11453683B1, “KRas G12D inhibitors” (Mirati Therapeutics, Inc., priority 2019, dated 2022)

What was measured:
[1] = target: T1, KRas G12D (Homo sapiens (Human), UniProt P01116, G12D); test: KRas G12D Surface Plasmon Resonance (SPR) Binding Assay; conditions: Biacore T200, immobilized biotinylated KRAS protein, 1:1 binding model
Method: Briefly, 1 L of 1.05× HBS-Mg buffer (262.5 mM Bioultra Hepes, pH 7.5, 157.5 mM NaCl, 105 mM MgCl2, 0.525 mM TCEP, 0.0305% Brij-35) was prepared and filter sterilized using a 0.22 μm bottle top filter. Approximately 50 mL of 1.05× HBS-Mg buffer was removed and saved for future dilutions. A 50 mL aliquot of DMSO (Sigma Aldrich DMSO Lot. #SHBK2079) was added and continued to stir for 10 minutes, creating the final 1.0× HBS-Mg buffer (250 mM Bioultra Hepes pH 7.5, 150 mM NaCl, 100 mM MgCl2, 0.5mM TCEP, 0.03% Brij-35).
Biacore T200 instrument was primed using 1.0× HBS-Mg buffer before docking a GE Streptavidin (SA) chip and then primed two additional times prior to beginning the immobilization step. All immobilized protein mixtures were created using 3-5mg/mL Biotinylated Avidin-tagged KRAS protein using the following immobilization settings: SA chip type, 1 flow cells per cycle, 720 second contact time, and 5 ul/min flow rate. Normalization of the detector was also performed during the immobilization step using the GE Biallormalize solution.
All compounds were diluted to 10 mM in 100% DMSO prior to being diluted 20× in 1.05× buffer. […] Data evaluation was performed using the Biacore T200 Evaluation software and data fit to 1:1 binding model.
Target sequence in this assay (P01116-2 other isoform, or with tags, fused parts or gaps G12D): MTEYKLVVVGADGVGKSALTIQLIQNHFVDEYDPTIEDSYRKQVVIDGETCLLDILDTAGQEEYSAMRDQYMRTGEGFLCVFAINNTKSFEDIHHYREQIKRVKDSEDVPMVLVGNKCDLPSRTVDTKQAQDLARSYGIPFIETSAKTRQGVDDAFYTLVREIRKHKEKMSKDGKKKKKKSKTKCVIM

[2] = target: T1, KRas G12D; test: KRas G12D Binding Assay (TR-FRET displacement); conditions: TR-FRET displacement of Cy5 labelled tracer, GDP-loaded KRAS G12D, 60 minute incubation at 22° C.
Method: After a 60 minute incubation at 22° C., the reaction was measured using a PerkinElmer EnVision multimode plate reader via TR-FRET dual wavelength detection, and the percent of control (POC) calculated using a ratiometric emission factor. […] The POC values were fit to a 4-parameter logistic curve and the IC50 value was determined as the concentration where the curve crosses 50 POC.
Target sequence in this assay (P01116 other isoform, or with tags, fused parts or gaps G12D): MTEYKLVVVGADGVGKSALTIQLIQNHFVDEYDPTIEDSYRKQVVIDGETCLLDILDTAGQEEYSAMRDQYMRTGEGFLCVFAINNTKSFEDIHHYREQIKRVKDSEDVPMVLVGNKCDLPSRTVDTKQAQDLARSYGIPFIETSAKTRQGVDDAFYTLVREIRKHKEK

[3] = test system: KRas G12D-mediated phosphorylation of ERK; test: Inhibition of KRas G12D-mediated phosphorylation of ERK in AGS cells; type: cell-based; conditions: Homo sapiens; AGS cells expressing G12D, 3 hours, phospho-ERK normalized to GAPDH
In short: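 Fixed, methanol-permeabilized; phospho-ERK (Thr202/Tyr204) by in-cell immunofluorescence normalized to GAPDH. Percent of DMSO control, IC50 by 4-parameter fit.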

CC(C)N1CCC[C@H]1COc1nc(N2C[C@H]3C[C@@H](O)[C@@H](C2)N3)c2cnc(-c3cccc4cccc(Cl)c34)c(F)c2n1 [Example 153, (1R,5R,6R)-3-(7-(8-chloronaphthalen-1-yl)-8-fluoro-2-(((S)-1-isopropylpyrrolidin-2-yl)methoxy)pyrido[4,3-d]pyrimidin-4-yl)-3,8-diazabicyclo[3.2.1]octan-6-ol]
Kd [1]: 0.0705 µM | IC50 [2]: 0.0508 µM | IC50 [3]: 2.37 µM

Cn1c(CCOc2nc(N3C[C@H]4CC[C@@H](C3)N4)c3cnc(-c4cc(O)cc5ccccc45)c(F)c3n2)nc2ccccc21 [Example 30, 4-(4-((1R,5S)-3,8-diazabicyclo[3.2.1]octan-3-yl)-8-fluoro-2-(2-(1-methyl-1H-benzo[d]imidazol-2-yl)ethoxy)pyrido[4,3-d]pyrimidin-7-yl)naphthalen-2-ol]
Kd [1]: 0.18 µM | IC50 [2]: 0.418 µM | IC50 [3]: 9.6 µM

Fc1c(-c2cncc3cccc(Cl)c23)ncc2c(N3C[C@H]4CC[C@@H](C3)N4)nc(OCC34CCCN3CCC4)nc12 [Example 33, 4-((1R,5S)-3,8-diazabicyclo[3.2.1]octan-3-yl)-7-(5-chloroisoquinolin-4-yl)-8-fluoro-2-((tetrahydro-1H-pyrrolizin-7a(5H)-yl)methoxy)pyrido[4,3-d]pyrimidine bis(2,2,2-trifluoroacetate)]
Kd [1]: 0.0717 µM | IC50 [2]: 0.0211 µM | IC50 [3]: 2.05 µM
